According to patent US20090076015A1, “Tricyclic Spiro Compound Comprising Acyl Group Bound to Nitrogen Atom in the Ring” (priority 2005, published 2009):

Experiments:
[1] = system: human plasma; assay: Measurement of intrinsic coagulation time (APTT) in vitro; assay type: biochemical; conditions: APTT reagent, 37° C., calcium chloride 25 mM
Description: Activated partial thromboplastin time (APTT) is measured in the presence of the test compounds of the present invention diluted at various concentrations. To be more specific, each of the test compounds diluted with DMSO at various concentrations is mixed with human plasma and APTT reagent. The mixture is incubated at 37° C. for 2 minutes; calcium chloride (25 mM) is added to the mixture; and the coagulation time is thereafter measured. It should be noted that the anticoagulant activity of the test compound is described in terms of the concentration required to double the coagulation time for the case where no test compound is added.

[2] = biological target: T1, human FXa (Homo sapiens, UniProt P00742); assay: Measurement of the human FXa inhibitory action; assay type: biochemical; conditions: human FXa 0.019 U/ml, substrate S-2222 0.4 mM, 37° C., Tris-HCl buffer pH 7.5
T1 construct: purchased Enzyme Research Laboratories, Inc
T1 sequence (P00742 235-488 limits assumed): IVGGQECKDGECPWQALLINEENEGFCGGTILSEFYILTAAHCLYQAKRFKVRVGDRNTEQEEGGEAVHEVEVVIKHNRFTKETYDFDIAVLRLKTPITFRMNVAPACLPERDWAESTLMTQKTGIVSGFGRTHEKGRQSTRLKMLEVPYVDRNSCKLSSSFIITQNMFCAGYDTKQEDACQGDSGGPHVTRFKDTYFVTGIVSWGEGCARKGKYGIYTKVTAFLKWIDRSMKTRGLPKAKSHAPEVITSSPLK
T1 sequence (P00742 41-179 partner limits assumed): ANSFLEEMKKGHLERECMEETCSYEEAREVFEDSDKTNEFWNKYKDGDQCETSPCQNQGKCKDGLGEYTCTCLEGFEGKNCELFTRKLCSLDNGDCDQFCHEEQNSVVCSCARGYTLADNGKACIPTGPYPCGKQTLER
Description: In vitro FXa inhibitory activity may be measured according to the method of Kettner et al. (Journal of Biological Chemistry, vol. 265, pages 18289 to 18297, 1990). To be more specific, human FXa (product of Enzyme Research Laboratories, Inc., 0.019 U/ml) is mixed with the specimens (of the compound of the present invention) prepared by diluting the compound of the invention with dimethylsulfoxide (DMSO) to different concentrations and synthetic substrate S-2222 (Chromogenix AB, 0.4 mM), and the mixtures are incubated at 37° C. in Tris-hydrochloric acid buffer (pH 7.5). The FXa inhibitory activity of the specimen is calculated by continuously observing the absorbance at 405 nm, and comparing the initial speed with the initial speed in the absence of the specimen.
It should be noted that the FXa inhibitory activity of the specimen is generally indicated as IC50.

COC(=O)COCC12CN(S(=O)(=O)c3cc4cc(Cl)ccc4[nH]3)CC(=O)N1CC1(CCN(C(C)=O)CC1)O2 (single isomer, unassigned; (-)) [Example 54, (−)-1′-acetyl-7-[(5-chloro-1H-indol-2-yl)sulfonyl]tetrahydro-8a-(methoxycarbonylmethoxymethyl)-spiro[5H-oxazolo[3,2-a]pyrazine-2(3H),4′-piperidin]-5-one]
Concentration when APTT was doubled [1]: 0.4 µM

O=C(C1CC1)N1CCC2(CC1)CN1C(=O)CN(S(=O)(=O)c3cc4cc(Cl)ccc4[nH]3)CC1(CO)O2 (single isomer, unassigned; (-)) [Example 52, (−)-7-[(5-chloro-1H-indol-2-yl)sulfonyl]tetrahydro-1′-cyclopropanoyl-8a-(hydroxymethyl)-spiro[5H-oxazolo[3,2-a]pyrazine-2(3H),4′-piperidin]-5-one]
Concentration when APTT was doubled [1]: 0.57 µM

C#CC(=O)N1CCC2(CC1)CN1C(=O)CN(S(=O)(=O)c3cc4cc(Cl)ccc4[nH]3)CC1(COC)N2C (single isomer, unassigned; (-)) [Example 13, (−)-7-[(5-chloro-1H-indol-2-yl)sulfonyl]tetrahydro-8a-(methoxymethyl)-1-methyl-1′-propinoyl-spiro[imidazo[1,2-a]pyrazine-2(3H),4′-piperidin]-5(1H)-one]
IC50 [2]: 2.6 nM

COCC12CN(S(=O)(=O)c3cc4cc(Cl)ccc4[nH]3)CC(=O)N1CC1(CCN(C(=O)C3CCC3)CC1)N2C (single isomer, unassigned; (-)) [Example 3, (−)-7-[(5-chloro-1H-indol-2-yl)sulfonyl]-1′-cyclobutanecarbonyl-tetrahydro-8a-(methoxymethyl)-1-methyl-spiro[imidazo[1,2-a]pyrazine-2(3H),4′-piperidin]-5(1H)-one]
IC50 [2]: 1.3 nM

CC(=O)N1CCC2(CC1)CN1C(=O)CN(S(=O)(=O)c3cc4cc(Cl)ccc4[nH]3)CC1(COc1ncccn1)O2 (single isomer, unassigned; (-)) [Example 56, (−)-1′-acetyl-7-[(5-chloro-1H-indol-2-yl)sulfonyl]tetrahydro-8a-(2-pyrimidyloxymethyl)-spiro[5H-oxazolo[3,2-a]pyrazine-2(3H),4′-piperidin]-5-one]
Concentration when APTT was doubled [1]: 0.5 µM

C=CC(=O)N1CCC2(CC1)CN1C(=O)CN(S(=O)(=O)c3cc4cc(Cl)ccc4[nH]3)CC1(COC)N2C (single isomer, unassigned; (-)) [Example 4, (−)-7-[(5-chloro-1H-indol-2-yl)sulfonyl]tetrahydro-8a-(methoxymethyl)-1-methyl-1′-propenoyl-spiro[imidazo[1,2-a]pyrazine-2(3H),4′-piperidin]-5(1H)-one]
Concentration when APTT was doubled [1]: 0.5 µM

COCC12CN(S(=O)(=O)/C=C/c3ccc(Cl)s3)CC(=O)N1CC1(CCN(C(C)=O)CC1)N2C (single isomer, unassigned; (-)) [Example 14, (−)-1′-acetyl-7-[[(1E)-2-(5-chloro-2-thienyl)ethenyl]sulfonyl]tetrahydro-8a-(methoxymethyl)-1-methyl-spiro[imidazo[1,2-a]pyrazine-2(3H),4′-piperidin]-5(1H)-one]
Concentration when APTT was doubled [1]: 0.64 µM

CCC(=O)N1CCC2(CC1)CN1C(=O)CN(S(=O)(=O)c3cc4cc(Cl)ccc4[nH]3)CC1(COC)N2C (single isomer, unassigned; (-)) [Example 2, (−)-7-[(5-chloro-1H-indol-2-yl)sulfonyl]tetrahydro-8a-(methoxymethyl)-1-methyl-1′-propanoyl-spiro[imidazo[1,2-a]pyrazine-2(3H),4′-piperidin]-5(1H)-one]
IC50 [2]: 1.8 nM

CCC(=O)N1CCC2(CC1)CN1C(=O)CN(S(=O)(=O)c3cc4cc(Cl)ccc4[nH]3)CC1(CN(C)CC(=O)O)O2 (single isomer, unassigned) [Example 66, optically active N-[[7-[(5-chloro-1H-indol-2-yl)sulfonyl]tetrahydro-5-oxo-1′-propanoyl-spiro[5H-oxazolo[3,2-a]pyrazine-2(3H),4′-piperidin]-8a-yl]methyl]-N-methylglycine]
IC50 [2]: 1.6 nM

CCC(=O)N1CCC2(CC1)CN1C(=O)CN(S(=O)(=O)c3cc4cc(Cl)ccc4[nH]3)CC1(COC)N2 (single isomer, unassigned; (-)) [Example 26, (−)-7-[(5-chloro-1H-indol-2-yl)sulfonyl]tetrahydro-8a-(methoxymethyl)-1′-propanoyl-spiro[imidazo[1,2-a]pyrazine-2(3H),4′-piperidin]-5(1H)-one]
Concentration when APTT was doubled [1]: 0.44 µM | IC50 [2]: 5.7 nM

COCC12CN(S(=O)(=O)c3cc4cc(Cl)ccc4[nH]3)CC(=O)N1CC1(CCN(C(C)=O)CC1)N2C (single isomer, unassigned; (-)) [Example 1, (−)-1′-acetyl-7-[(5-chloro-1H-indol-2-yl)sulfonyl]tetrahydro-8a-(methoxymethyl)-1-methyl-spiro[imidazo[1,2-a]pyrazine-2(3H),4′-piperidin]-5(1H)-one]
IC50 [2]: 5.7 nM

COCC12CN(S(=O)(=O)c3cc4cc(Cl)ccc4[nH]3)CC(=O)N1CC1(CCN(C(C)=O)CC1)O2 (single isomer, unassigned; (-)) [Example 34, (−)-1′-acetyl-7-[(5-chloro-1H-indol-2-yl)sulfonyl]tetrahydro-8a-(methoxymethyl)-spiro[5H-oxazolo[3,2-a]pyrazine-2(3H),4′-piperidin]-5-one]
IC50 [2]: 8.2 nM

C#CC(=O)N1CCC2(CC1)CN1C(=O)CN(S(=O)(=O)c3cc4ccc(Cl)cc4s3)CC1(COC)N2C (single isomer, unassigned; (-)) [Example 17, (−)-7-[(6-chloro-benzo[b]thiophen-2-yl)sulfonyl]tetrahydro-8a-(methoxymethyl)-1-methyl-1′-propinoyl-spiro[imidazo[1,2-a]pyrazine-2(3H),4′-piperidin]-5(1H)-one]
Concentration when APTT was doubled [1]: 0.87 µM | IC50 [2]: 6.5 nM

CC(=O)NCC12CN(S(=O)(=O)c3cc4cc(Cl)ccc4[nH]3)CC(=O)N1CC1(CCN(C(C)=O)CC1)N2C (single isomer, unassigned) [Example 21, optically active 1′-acetyl-8a-(acetylaminomethyl)-7-[(5-chloro-1H-indol-2-yl)sulfonyl]tetrahydro-1-methyl-spiro[imidazo[1,2-a]pyrazine-2(3H),4′-piperidin]-5(1H)-one]
Concentration when APTT was doubled [1]: 0.36 µM | IC50 [2]: 5.6 nM

CCOC(=O)CN(C)CC12CN(S(=O)(=O)c3cc4cc(Cl)ccc4[nH]3)C[C@@H](O)N1CC1(CCN(C(=O)CC)CC1)O2 (single isomer, unassigned) [Example 64, optically active 7-[(5-chloro-1H-indol-2-yl)sulfonyl]tetrahydro-8a-[(N-ethoxycarboxymethyl)-N-methylaminomethyl]-1′-propanoyl-spiro[5H-oxazolo[3,2-a]pyrazine-2(3H),4′-piperidin]-5-one]
Concentration when APTT was doubled [1]: 0.89 µM

CCN1C2(CCN(C(C)=O)CC2)CN2C(=O)CN(S(=O)(=O)c3cc4cc(Cl)ccc4[nH]3)CC21COC (single isomer, unassigned; (-)) [Example 23, (−)-1′-acetyl-7-[(5-chloro-1H-indol-2-yl)sulfonyl]tetrahydro-1-ethyl-8a-(methoxymethyl)-spiro[imidazo[1,2-a]pyrazine-2(3H),4′-piperidin]-5(1H)-one]
Concentration when APTT was doubled [1]: 0.19 µM

COCC12CN(S(=O)(=O)/C=C/c3ccc(Cl)s3)CC(=O)N1CC1(CCN(C(C)=O)CC1)O2 (single isomer, unassigned; (-)) [Example 36, (−)-1′-acetyl-7-[[(1E)-2-(5-chloro-2-thienyl)ethenyl]sulfonyl]tetrahydro-8a-(methoxymethyl)-spiro[5H-oxazolo[3,2-a]pyrazine-2(3H),4′-piperidin]-5-one]
Concentration when APTT was doubled [1]: 0.83 µM

CC(=O)N1CCC2(CC1)CN1C(=O)CN(S(=O)(=O)c3cc4cc(Cl)ccc4[nH]3)CC1(CN(C)C)O2 (single isomer, unassigned) [Example 60, optically active 1′-acetyl-7-[(5-chloro-1H-indol-2-yl)sulfonyl]tetrahydro-8a-(N,N-dimethylaminomethyl)-spiro[5H-oxazolo[3,2-a]pyrazine-2(3H),4′-piperidin]-5-one]
IC50 [2]: 4.5 nM
